The record followed here is patent US12486278B2, “MASP-2 inhibitors and methods of use” (Omeros Corporation, priority 2019, dated 2025).

The term Ki denotes a dissociation constant, usually derived from enzyme kinetics or from competition with a known ligand.

Structures are written as SMILES. Where a name gives a salt, the structure may show the parent alone.

The target in this assay is T1, MASP-2 (CCP1-CCP2-SP) (Homo sapiens, UniProt O00187).
T1 construct: 15 μL of Enzyme MASP-2 (CCP1-CCP2-SP) in Assay Buffer
T1 sequence (O00187 445-686 limits assumed): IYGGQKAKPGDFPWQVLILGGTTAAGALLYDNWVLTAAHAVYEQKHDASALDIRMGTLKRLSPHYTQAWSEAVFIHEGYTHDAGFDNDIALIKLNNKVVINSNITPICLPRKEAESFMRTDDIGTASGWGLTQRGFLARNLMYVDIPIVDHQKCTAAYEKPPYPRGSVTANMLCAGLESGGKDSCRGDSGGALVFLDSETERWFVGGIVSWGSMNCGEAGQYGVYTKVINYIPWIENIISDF
T1 sequence (O00187 298-444 partner limits assumed): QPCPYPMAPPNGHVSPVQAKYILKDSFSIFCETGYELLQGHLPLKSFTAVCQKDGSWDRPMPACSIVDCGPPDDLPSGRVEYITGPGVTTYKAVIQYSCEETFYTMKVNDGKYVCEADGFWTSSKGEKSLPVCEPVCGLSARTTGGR
Nature of the assay: Enzymatic Assay for MASP-2 (fluorogenic substrate). It is filed as biochemical. As to conditions: fluorogenic substrate based on C2 cleavage site; room temperature, 20 min; 20 mM HEPES pH 7.4, 140 mM NaCl, 0.1% Tween 20. The method, then: The MASP-2 assay utilizes a fluorogenic substrate, based on the cleavage site for its natural substrate C2. The assay is run at room temperature in an assay buffer containing 20 mM HEPES, pH 7.4, 140 mM NaCl and 0.1% Tween 20. Assay parameters are adjusted such that the assay is linear with respect to time, enzyme, and substrate concentrations. Under these optimized assays conditions, IC50 values are equivalent to Ki values, except in a few cases of “tight binding” inhibitors. Cases of “tight binding” or possible “slow binding” inhibitors are handled by the methods described in Copeland R. A. (2013) Evaluation of Enzyme Inhibitors in Drug Discovery. 2nd Ed., John Wiley and Sons, Inc., Chapters 5-7.
The MASP-2 assay protocol is carried out as follows. Test compounds are serially diluted in DMSO and then 100 nL of each dilution is transferred to the assay plate(s). 10 μL of Assay Buffer is added, followed by 15 μL of Enzyme MASP-2 (CCP1-CCP2-SP) in Assay Buffer. 15 μL of Substrate in Assay Buffer is then added and mixed to start the reactions. After 20 min at room temperature, 15 μL of a stop solution (0.1 M acetic acid) is added, mixed and the plates are read on a SpectraMax i3x Microplate Reader and exported as Excel files. Each assay plate included a “no inhibitor” (DMSO Only) control, a “no enzyme” control and a reference inhibitor control. % Activity values=100*(average test comp. fluorescence−average “no enzyme” fluorescence)/(average “DMSO only” fluorescence−average “no enzyme” fluorescence). IC50 and Ki values are very reproducible, falling well within ±2-fold.
In the case of `C[C@H](NC(=O)[C@H]1C[C@H](c2ccccc2)CN1)C(=O)NCc1nc2c(Cl)cccc2s1` [Compound I-4, (2R,4R)—N—((S)-1-(((4-Chlorobenzo[D]Thiazol-2-Yl)Methyl)Amino)-1-Oxopropan-2-Yl)-4-Phenylpyrrolidine-2-Carboxamide Trifluoroacetate], the Ki is 500 to 2500 nM.

In the case of `C[C@H](NC(=O)[C@H]1C[C@@H](c2ccccc2)CCN1CCC(=O)O)C(=O)NCc1ccc(C(=N)N)cc1` [Compound I-32, 3-((2R,4S)-2-(((S)-1-((4-Carbamimidoylbenzyl)Amino)-1-Oxopropan-2-Yl)Carbamoyl)-4-Phenylpiperidin-1-Yl)Propanoic Acid Di-Trifluoroacetate], the Ki is less than 500 nM.

Consider `C[C@H](NC(=O)[C@H]1C[C@H](Oc2ccccc2)CN1)C(=O)NCc1cnc2c(c1)c(Cl)cn2C` [Compound I-46, (2R,4S)—N—((S)-1-(((3-Chloro-1-Methyl-1H-Pyrrolo[2,3-B]Pyridin-5-Yl)Methyl)Amino)-1-Oxopropan-2-Yl)-4-Phenoxypyrrolidine-2-Carboxamide Trifluoroacetate], for which the inhibition constant (Ki) was less than 500 nM.

On to `C[C@H](NC(=O)[C@H]1C[C@@H](c2cccc(-n3cccn3)c2)CCN1)C(=O)NCc1cc(Cl)ccc1-n1cnnn1` [Compound I-79, (2R,4S)-4-(3-(1H-Pyrazol-1-Yl)Phenyl)-N—((S)-1-((5-Chloro-2-(1H-Tetrazol-1-Yl)Benzyl)Amino)-1-Oxopropan-2-Yl)Piperidine-2-Carboxamide Dihydrochloride], for which the Ki is less than 500 nM.

Consider `C[C@H](NC(=O)[C@H]1C[C@@H](c2ccccc2)CCN1)C(=O)NCc1cc2cnccc2[nH]1` [Compound I-90, (2R,4S)—N—((S)-1-(((1H-Pyrrolo[3,2-C]Pyridin-2-Yl)Methyl)Amino)-1-Oxopropan-2-Yl)-4-Phenylpiperidine-2-Carboxamide Di-Trifluoroacetate], for which the Ki is less than 500 nM.

Consider `Cc1nc(N)ccc1CNC(=O)[C@@H]1CCN1C(=O)[C@H]1C[C@@H](c2ccccc2)CCN1` [Compound I-63, (S)—N-((6-Amino-2-Methylpyridin-3-Yl)Methyl)-1-((2R,4S)-4-Phenylpiperidine-2-Carbonyl)Azetidine-2-Carboxamide Di-Trifluoroacetate], for which the Ki is less than 500 nM.

Take `Cc1cccc(C2CN[C@@H](C(=O)N[C@@H](C)C(=O)NCc3ccc(C(=N)N)cc3)C2)c1` (single isomer, unassigned) [Compound I-14, N-(1-((4-Carbamimidoylbenzyl)amino)-1-oxopropan-2-yl)-4-(m-tolyl)pyrrolidine-2-carboxamide]: the Ki is less than 500 nM.

As to `C[C@H](NC(=O)c1cc(Cc2ccc(-c3ccccc3)cc2)c[nH]1)C(=O)NCc1ccc(C(=N)N)cc1` [Compound I-100, (S)-4-([1,1′-Biphenyl]-4-ylmethyl)-N-(1-((4-carbamimidoylbenzyl)amino)-1-oxopropan-2-yl)-1H-pyrrole-2-carboxamide trifluoroacetate], the Ki was less than 500 nM.

Compound `Cc1nc(N)ccc1CNC(=O)[C@H](C)NC(=O)[C@H]1C[C@H](Cc2ccc(F)c(Cl)c2F)CN1` [Compound I-88, (2R,4S)—N—((S)-1-(((6-Amino-2-Methylpyridin-3-Yl)Methyl)Amino)-1-Oxopropan-2-Yl)-4-(3-Chloro-2,4-Difluorobenzyl)Pyrrolidine-2-Carboxamide Dihydrochloride] had a Ki of less than 500 nM.

For the compound `Cc1nc(N)ccc1CNC(=O)[C@H](C)NC(=O)[C@H]1C[C@H](Cc2cc(Cl)cs2)CN1` [Compound I-87, (2R,4R)—N—((S)-1-(((6-Amino-2-Methylpyridin-3-Yl)Methyl)Amino)-1-Oxopropan-2-Yl)-4-((4-Chlorothiophen-2-Yl)Methyl)Pyrrolidine-2-Carboxamide Dihydrochloride], the Ki is less than 500 nM.

`C[C@H](NC(=O)[C@H]1C[C@@H](c2ccc(-c3cccnc3)cc2)CCN1)C(=O)NCc1ccc(C(=N)N)cc1` [Compound I-72, (2R,4S)—N—((S)-1-((4-Carbamimidoylbenzyl)Amino)-1-Oxopropan-2-Yl)-4-(4-(Pyridin-3-Yl)Phenyl)Piperidine-2-Carboxamide Di-Trifluoroacetate] registered a Ki of less than 500 nM.

`Cc1nc(N)ccc1CNC(=O)[C@H](C)NC(=O)[C@H]1C[C@H](Cc2cccc(C(=O)O)c2)CN1` [Compound I-48, 3-(((3S,5R)-5-(((S)-1-(((6-Amino-2-Methylpyridin-3-Yl)Methyl)Amino)-1-Oxopropan-2-Yl)Carbamoyl)Pyrrolidin-3-Yl)Methyl)Benzoic Acid Di-Trifluoroacetate] showed an inhibition constant Ki of less than 500 nM.

For `C[C@H](NC(=O)[C@H]1C[C@H](Cc2ccc(F)c(Cl)c2)CN1)C(=O)NCc1cnc2[nH]cc(Cl)c2c1` [Compound I-25, (2R,4S)—N—((S)-1-(((3-Chloro-1H-Pyrrolo[2,3-B]Pyridin-5-Yl)Methyl)Amino)-1-Oxopropan-2-Yl)-4-(3-Chloro-4-Fluorobenzyl)Pyrrolidine-2-Carboxamide Trifluoroacetate], the Ki is less than 500 nM.

For `C[C@H](NC(=O)[C@H]1C[C@H](Cc2ccccc2)CN1)C(=O)NCc1cnc2scc(Cl)c2c1` [Compound I-11, (2R,4S)-4-Benzyl-N—((S)-1-(((3-Chlorothieno[2,3-B]Pyridin-5-Yl)Methyl)Amino)-1-Oxopropan-2-Yl)Pyrrolidine-2-Carboxamide Trifluoroacetate], the Ki was less than 500 nM.

Compound `C[C@H](NC(=O)[C@H]1C[C@@H](c2ccccc2)CCN1CCC(=O)O)C(=O)NCc1cc(Cl)ccc1-n1cnnn1` [Compound I-29, 3-((2R,4S)-2-(((S)-1-((5-Chloro-2-(1H-Tetrazol-1-Yl)Benzyl)Amino)-1-Oxopropan-2-Yl)Carbamoyl)-4-Phenylpiperidin-1-Yl)Propanoic Acid Trifluoroacetate] gave a Ki of 2500 to 10000 nM.

For the compound `C[C@H](NC(=O)[C@H]1C[C@@H](c2cccc(-n3cccn3)c2)CCN1)C(=O)NCc1cc2cnccc2[nH]1` [Compound I-80, (2R,4S)-4-(3-(1H-Pyrazol-1-Yl)Phenyl)-N—((S)-1-(((1H-Pyrrolo[3,2-C]Pyridin-2-Yl)Methyl)Amino)-1-Oxopropan-2-Yl)Piperidine-2-Carboxamide Dihydrochloride], the Ki was less than 500 nM.

`C[C@H](NC(=O)[C@H]1C[C@H](Cc2cc(Br)c(Cl)s2)CN1)C(=O)NCc1cc2cnccc2[nH]1` [Compound I-21, (2R,4R)—N—((S)-1-(((1H-Pyrrolo[3,2-C]Pyridin-2-Yl)Methyl)Amino)-1-Oxopropan-2-Yl)-4-((4-Bromo-5-Chlorothiophen-2-Yl)Methyl)Pyrrolidine-2-Carboxamide Di-Trifluoroacetate] gave a Ki of less than 500 nM.

`C[C@H](NC(=O)[C@H]1C[C@@H](c2cccc(C(N)=O)c2)CN1)C(=O)NCc1ccc(C(=N)N)cc1` [Compound I-15] returned an inhibition constant Ki of less than 500 nM.

For `C[C@H](NC(=O)[C@H]1C[C@H](Cc2ccc(Cl)s2)CN1)C(=O)NCc1cnc2[nH]cc(Cl)c2c1` [Compound I-83, (2R,4R)—N—((S)-1-(((3-Chloro-1H-Pyrrolo[2,3-B]Pyridin-5-Yl)Methyl)Amino)-1-Oxopropan-2-Yl)-4-((5-Chlorothiophen-2-Yl)Methyl)Pyrrolidine-2-Carboxamide Dihydrochloride], the Ki is less than 500 nM.

In turn, `COc1cccc([C@@H]2CN[C@@H](C(=O)N[C@@H](C)C(=O)NCc3ccc(C(=N)N)cc3)C2)c1` [Compound I-16, (2R,4R)—N—((S)-1-((4-Carbamimidoylbenzyl)Amino)-1-Oxopropan-2-Yl)-4-(3-Methoxyphenyl)Pyrrolidine-2-Carboxamide Dihydrochloride] returned a Ki of less than 500 nM.

With `C[C@H](NC(=O)[C@H]1C[C@H](Cc2ccnc(N)c2)CN1)C(=O)NCc1ccc(C(=N)N)cc1` [Compound I-56, (2R,4S)-4-((2-Aminopyridin-4-Yl)Methyl)-N—((S)-1-((4-Carbamimidoylbenzyl)Amino)-1-Oxopropan-2-Yl)Pyrrolidine-2-Carboxamide Di-Trifluoroacetate], the Ki was less than 500 nM.

As to `C[C@H](NC(=O)[C@H]1C[C@H](Cc2cccc(Cl)c2)CN1)C(=O)NCc1cnc2[nH]cc(Cl)c2c1` [Compound I-82, (2R,4S)—N—((S)-1-(((3-Chloro-1H-Pyrrolo[2,3-B]Pyridin-5-Yl)Methyl)Amino)-1-Oxopropan-2-Yl)-4-(3-Chlorobenzyl)Pyrrolidine-2-Carboxamide Dihydrochloride], the Ki is less than 500 nM.

For `COC(=O)c1cccc(C[C@@H]2CN[C@@H](C(=O)N[C@@H](C)C(=O)NCc3ccc(C(=N)N)cc3)C2)c1` [Compound I-54, Methyl 3-(((3S,5R)-5-(((S)-1-((4-Carbamimidoylbenzyl)Amino)-1-Oxopropan-2-Yl)Carbamoyl)Pyrrolidin-3-Yl)Methyl)Benzoate Di-Trifluoroacetate], the Ki was less than 500 nM.

As for `C[C@H](NC(=O)[C@H]1C[C@H](Cc2ccc(F)c(Cl)c2)CN1)C(=O)NCc1ccc(C(=N)N)cc1` [Compound I-23, (2R,4S)—N—((S)-1-((4-Carbamimidoylbenzyl)Amino)-1-Oxopropan-2-Yl)-4-(3-Chloro-4-Fluorobenzyl)Pyrrolidine-2-Carboxamide Di-Trifluoroacetate], the inhibitory constant (Ki) is less than 500 nM.
